Results from US8153593B2, “Transglutaminase inhibitors and methods of use thereof” (The Board of Trustees of the Leland Stanford Junior …, priority 2003, dated 2012).

Legend:
[1] = biological target: T1, recombinant human tissue transglutaminase (Homo sapiens, UniProt P21980); experiment: tTGase inhibition assay, residual activity by glutamate dehydrogenase coupled assay; format: biochemical
T1 construct: made in house
T1 sequence (P21980 1-687): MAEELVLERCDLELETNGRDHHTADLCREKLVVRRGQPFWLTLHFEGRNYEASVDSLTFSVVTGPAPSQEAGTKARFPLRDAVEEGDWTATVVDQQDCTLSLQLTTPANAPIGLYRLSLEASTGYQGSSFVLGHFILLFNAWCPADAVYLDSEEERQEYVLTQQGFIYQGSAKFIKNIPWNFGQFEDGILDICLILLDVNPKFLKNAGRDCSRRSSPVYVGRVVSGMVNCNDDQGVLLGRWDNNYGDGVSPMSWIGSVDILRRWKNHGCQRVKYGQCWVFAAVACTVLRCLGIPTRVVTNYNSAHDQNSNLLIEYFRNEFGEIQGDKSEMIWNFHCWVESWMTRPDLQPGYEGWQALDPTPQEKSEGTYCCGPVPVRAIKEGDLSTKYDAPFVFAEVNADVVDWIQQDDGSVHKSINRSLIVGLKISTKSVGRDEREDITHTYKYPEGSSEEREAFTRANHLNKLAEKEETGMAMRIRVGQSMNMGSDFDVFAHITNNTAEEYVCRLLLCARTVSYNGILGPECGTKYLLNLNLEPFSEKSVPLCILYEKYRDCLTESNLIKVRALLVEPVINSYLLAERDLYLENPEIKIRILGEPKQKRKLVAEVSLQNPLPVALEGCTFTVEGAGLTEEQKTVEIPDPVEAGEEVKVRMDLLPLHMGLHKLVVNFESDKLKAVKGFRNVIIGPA

tumor associated TG2 = biological target: T2, tumor associated TG2 (Mus musculus, UniProt P21981); experiment: Intracranial DBT tumor associated TG2 activity after dosing; format: in vivo, mice
T2 construct: from tissue; host or cells: intracranial DBT glioblastoma tumours from dosed mice
T2 sequence (P21981 1-686): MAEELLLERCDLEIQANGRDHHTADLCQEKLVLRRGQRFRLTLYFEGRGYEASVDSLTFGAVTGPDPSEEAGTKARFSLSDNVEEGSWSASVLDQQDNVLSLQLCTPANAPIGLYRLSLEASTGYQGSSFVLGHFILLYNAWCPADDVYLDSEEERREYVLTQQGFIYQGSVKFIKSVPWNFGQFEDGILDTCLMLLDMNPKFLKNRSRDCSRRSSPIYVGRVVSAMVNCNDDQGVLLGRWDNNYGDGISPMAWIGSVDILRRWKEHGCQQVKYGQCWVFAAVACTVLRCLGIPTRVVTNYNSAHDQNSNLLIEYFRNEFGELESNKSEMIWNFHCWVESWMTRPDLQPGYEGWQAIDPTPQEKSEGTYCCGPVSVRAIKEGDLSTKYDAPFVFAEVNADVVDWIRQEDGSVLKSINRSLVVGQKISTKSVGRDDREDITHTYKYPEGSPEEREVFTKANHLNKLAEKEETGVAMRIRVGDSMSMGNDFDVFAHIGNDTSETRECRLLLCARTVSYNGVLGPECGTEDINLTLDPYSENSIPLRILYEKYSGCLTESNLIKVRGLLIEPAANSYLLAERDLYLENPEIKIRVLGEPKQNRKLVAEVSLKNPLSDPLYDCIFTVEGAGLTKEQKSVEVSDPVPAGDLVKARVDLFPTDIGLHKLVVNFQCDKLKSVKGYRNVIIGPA
Procedure: To test whether therapeutic doses of KCC009 can modulate TG2 activity associated with intracranial glioblastomas, DBT tumors were injected intracranially in mice. As judged by MRI, the mice consistently established intracranial tumors after 7-10 days following injections, which, if untreated, caused death by 2-3 weeks. In an initial dose-finding experiment, cohorts of mice were administered 4 daily doses of vehicle or KCC009 (12.5 mg/kg, 25 mg/kg and 50 mg/kg) starting on day 11 after intra-cranial injections. Twenty-four hours later, the mice were sacrificed and tumors analyzed. […] Based on these findings a dose of 35 mg/kg was used for subsequent experiments in mice harboring intracranial DBT tumors.
As summarized in Table 4, KCC009 treatment led to significant suppression of TG2 activity after 15 min, whereas enzyme activity recovers fully by 24 h. Both uninhibited and inhibited activity levels are consistent with similar measurements in the small intestinal mucosa (data not shown).

| Compound | kinh/KI ([1]; Table 3) | Ki ([1]; dihydroisoxazoles, Table 1) | kinh ([1]; dihydroisoxazoles, Table 1) | kinh/Ki ([1]; dihydroisoxazoles, Table 1) | further results |
| --- | --- | --- | --- | --- | --- |
| O=C(NCC1CC(Br)=NO1)[C@@H]1CCCN1C(=O)OCc1cnc2ccccc2c1 (stereo in doubt) [ERW1041E, 2-[(3-Bromo-4,5-dihydro-isoxazol-5-ylmethyl)-carbamoyl]-pyrrolidine-1-carboxylic acid quinolin-3-ylmethyl ester] | 3000 /Mmin |  |  |  | Ki ([1]; Table 3): 953 µM; kinh ([1]; Table 3): 2.856 min⁻¹ |
| O=NN(CCCl)C(=O)NCCCl [BCNU, reference compound] |  |  |  |  | TG2 activity-BCNU alone (tumor associated TG2; 15 min after last of four daily doses): 2.1 ± 0.2 (n = 4) nmol/h/mg protein; TG2 activity-BCNU alone (tumor associated TG2; 24 h after last of four daily doses): 2.2 ± 0.3 (n = 2) nmol/h/mg protein |
| COC(=O)[C@H](CCC(=O)NCC1CC(Br)=NO1)NC(=O)OCc1ccccc1 (stereo partly drawn) [Compound 50, (S)-2-Benzyloxycarbonylamino-4-[(3-bromo-4,5-dihydro-isoxazol-5-ylmethyl)-carbamoyl]-butyric acid methyl ester] |  | 1600 µM | 0.32 min⁻¹ | 200 min^−1M^−1 |  |
| COC(=O)[C@H](CC(=O)NCC1CC(Br)=NO1)NC(=O)OCc1ccccc1 (stereo partly drawn) [Compound 51, (S)-2-Benzyloxycarbonylamino-N-(3-bromo-4,5-dihydro-isoxazol-5-ylmethyl)-succinamic acid methyl ester] |  | 870 µM | 0.43 min⁻¹ | 490 min^−1M^−1 |  |
| O=C(N[C@@H](Cc1ccccc1)C(=O)OCC1CC(Br)=NO1)OCc1ccccc1 (stereo partly drawn) [Compound 52, (S)-2-Benzyloxycarbonylamino-3-phenyl-propionic acid 3-bromo-4,5-dihydro-isoxazol-5-ylmethyl ester] |  | 1300 µM | 0.32 min⁻¹ | 230 min^−1M^−1 |  |
| C[C@H](NC(=O)OCc1ccccc1)C(=O)NCC1CC(Br)=NO1 (stereo partly drawn) [Compound 53, {(S)-1-[(3-Bromo-4,5-dihydro-isoxazol-5-ylmethyl)-carbamoyl]-ethyl}-carbamic acid benzyl ester] |  | 910 µM | 0.41 min⁻¹ | 450 min^−1M^−1 |  |
| CC(=O)N[C@@H](Cc1ccccc1)C(=O)NCC1CC(Br)=NO1 (stereo partly drawn) [Compound 54, (S)-2-Acetylamino-N-(3-bromo-4,5-dihydro-isoxazol-5-ylmethyl)-3-phenyl-propionamide] |  | 2700 µM | 0.60 min⁻¹ | 220 min^−1M^−1 |  |
| O=C(N[C@H](Cc1ccccc1)C(=O)NCC1CC(Br)=NO1)OCc1ccccc1 (stereo partly drawn) [Compound 55, {(R)-1-[(3-Bromo-4,5-dihydro-isoxazol-5-ylmethyl)-carbamoyl]-2-phenyl-ethyl}-carbamic acid benzyl ester] |  |  | 0.29 min⁻¹ |  |  |
| O=C(C[C@H](NC(=O)OCc1ccccc1)C(=O)NCC1CC(Br)=NO1)NCc1ccccc1 (stereo partly drawn) [Compound 56, {(S)-2-Benzylcarbamoyl-1-[(3-bromo-4,5-dihydro-isoxazol-5-ylmethyl)-carbamoyl]-ethyl}-carbamic acid benzyl ester] |  | 240 µM | 0.54 min⁻¹ | 2300 min^−1M^−1 |  |
| O=C(N[C@@H](Cc1c[nH]c2ccccc12)C(=O)NCC1CC(Br)=NO1)OCc1ccccc1 (stereo partly drawn) [Compound 57, [(S)-1-[(3-Bromo-4,5-dihydro-isoxazol-5-ylmethyl)-carbamoyl]-2-(1H-indol-3-yl)-ethyl]-carbamic acid benzyl ester] |  |  | 0.78 min⁻¹ | 2500 min^−1M^−1 |  |
| CN(CC1CC(Br)=NO1)C(=O)[C@H](Cc1ccccc1)NC(=O)OCc1ccccc1 (stereo partly drawn) [Compound 58, {(S)-1-[(3-Bromo-4,5-dihydro-isoxazol-5-ylmethyl)-methyl-carbamoyl]-2-phenyl-ethyl}-carbamic acid benzyl ester] |  | 260 µM | 0.19 min⁻¹ | 730 min^−1M^−1 |  |
| O=C(NCC1CC(Br)=NO1)Nc1ccccc1 (centres unmarked) [Compound 60, 1-(3-Bromo-4,5-dihydro-isoxazol-5-ylmethyl)-3-phenyl-urea] |  |  | 0.89 min⁻¹ | 810 min^−1M^−1 |  |
| O=C(NCC1CC(Br)=NO1)Nc1cc(C(F)(F)F)ccc1Cl (centres unmarked) [Compound 61, 1-(3-Bromo-4,5-dihydro-isoxazol-5-ylmethyl)-3-(2-chloro-5-trifluoromethyl-phenyl)-urea] |  |  | 0.95 min⁻¹ | 1000 min^−1M^−1 |  |
| O=C(NCC1CC(Br)=NO1)Nc1ccc(Cl)cc1C(F)(F)F (centres unmarked) [Compound 62, 1-(3-Bromo-4,5-dihydro-isoxazol-5-ylmethyl)-3-(4-chloro-2-trifluoromethyl-phenyl)-urea] |  |  | 1.1 min⁻¹ | 850 min^−1M^−1 |  |
| O=C(NCC1CC(Br)=NO1)Nc1ccc(F)cc1 (centres unmarked) [Compound 63, 1-(3-Bromo-4,5-dihydro-isoxazol-5-ylmethyl)-3-(4-fluoro-phenyl)-urea] |  |  | 1.0 min⁻¹ | 770 min^−1M^−1 |  |
| Cc1ccc(C)c(NC(=O)NCC2CC(Br)=NO2)c1 (centres unmarked) [Compound 64, 1-(3-Bromo-4,5-dihydro-isoxazol-5-ylmethyl)-3-(2,5-dimethyl-phenyl)-urea] |  |  | 0.97 min⁻¹ | 1000 min^−1M^−1 |  |
| O=C(NC(Cc1c[nH]c2ccc(F)cc12)C(=O)NCC1CC(Br)=NO1)OCc1ccccc1 (centres unmarked) [ERW903, [1-[(3-Bromo-4,5-dihydro-isoxazol-5-ylmethyl)-carbamoyl]-2-(5-fluoro-1H-indol-3-yl)-ethyl]-carbamic acid benzyl ester] | <1200 >1200 <1200 <1200 /Mmin |  |  |  |  |
| O=C(NC(Cc1ccc(O)cc1)C(=O)NCC1CC(Br)=NO1)OCc1cnc2ccccc2c1 (centres unmarked) [ERW1041A, [1-[(3-Bromo-4,5-dihydro-isoxazol-5-ylmethyl)-carbamoyl]-2-(4-hydroxy-phenyl)-ethyl]-carbamic acid quinolin-3-ylmethyl ester] | 2900 /Mmin |  |  |  | Ki ([1]; Table 3): 63.1 µM; kinh ([1]; Table 3): 0.184 min⁻¹ |
| O=C(NC(Cc1c[nH]c2ccc(O)cc12)C(=O)NCC1CC(Br)=NO1)OCc1cnc2ccccc2c1 (centres unmarked) [ERW1041B, [1-[(3-Bromo-4,5-dihydro-isoxazol-5-ylmethyl)-carbamoyl]-2-(5-hydroxy-1H-indol-3-yl)-ethyl]-carbamic acid quinolin-3-ylmethyl ester] | 1850 /Mmin |  |  |  | Ki ([1]; Table 3): 1380 µM; kinh ([1]; Table 3): 2.57 min⁻¹ |
| COc1ccc2[nH]cc(CC(NC(=O)OCc3cnc4ccccc4c3)C(=O)NCC3CC(Br)=NO3)c2c1 (centres unmarked) [ERW1041D, [1-[(3-Bromo-4,5-dihydro-isoxazol-5-ylmethyl)-carbamoyl]-2-(5-methoxy-1H-indol-3-yl)-ethyl]-carbamic acid quinolin-3-ylmethyl ester] | 1600 /Mmin |  |  |  | Ki ([1]; Table 3): 173 µM; kinh ([1]; Table 3): 0.283 min⁻¹ |
| O=C(NCC1CC(Br)=NO1)C1Cc2ccccc2N1C(=O)OCc1ccccc1 (centres unmarked) [ERW1045, 2-[(3-Bromo-4,5-dihydro-isoxazol-5-ylmethyl)-carbamoyl]-2,3-dihydro-indole-1-carboxylic acid benzyl ester] | <1200 /Mmin |  |  |  |  |
| O=C(NC(Cc1c[nH]c2ccc(F)cc12)C(=O)NCC1CC(Br)=NO1)OCc1cnc2ccccc2c1 (centres unmarked) [ERW1069, [1-[(3-Bromo-4,5-dihydro-isoxazol-5-ylmethyl)-carbamoyl]-2-(5-fluoro-1H-indol-3-yl)-ethyl]-carbamic acid quinolin-3-ylmethyl ester] | 26800 /Mmin |  |  |  | Ki ([1]; Table 3): 4.9 µM; kinh ([1]; Table 3): 0.1314 min⁻¹ |
